Assay results as given in patent publication US12325697B2 (Nimbus Clio, Inc., priority 2021, dated 2025).

Target: Recombinant human Cbl-b (aa 36-427) (Homo sapiens (Human), UniProt Q13191)
Test: Cbl-b Biochemical Assay (TR-FRET)
Settings: read-out: TR-FRET hCbl-b IC50
Outline: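 IC50 from 4-parameter fit of % inhibition (DMSO max, reference-inhibitor min), duplicate ten-point series. Compound preincubated with 6 nM Cbl-b, then Src-Zap70 (1-2.5 nM)/0.5 mM ATP reaction 60 min RT; EDTA quench with labelled UBE2D2-Ub and streptavidin-terbium, 60 min, HTRF at 520 nm.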

Sequence of Recombinant human Cbl-b (aa 36-427) (Q13191 36-427): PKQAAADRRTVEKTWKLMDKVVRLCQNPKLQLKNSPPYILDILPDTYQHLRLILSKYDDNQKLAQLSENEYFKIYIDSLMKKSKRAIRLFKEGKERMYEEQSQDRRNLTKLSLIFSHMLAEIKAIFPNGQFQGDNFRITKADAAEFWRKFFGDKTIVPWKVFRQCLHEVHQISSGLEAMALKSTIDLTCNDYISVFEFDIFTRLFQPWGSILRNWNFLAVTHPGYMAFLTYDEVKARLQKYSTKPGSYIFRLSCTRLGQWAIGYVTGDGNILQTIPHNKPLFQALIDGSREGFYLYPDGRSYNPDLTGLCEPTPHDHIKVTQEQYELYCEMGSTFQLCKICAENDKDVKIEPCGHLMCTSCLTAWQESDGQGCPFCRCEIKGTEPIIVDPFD

| Compound | IC50 [nM] |
| --- | --- |
| CCNc1cc(-c2ccccc2-c2nncn2C)cc(N2Cc3c(cc(CN4CC(F)C4)cc3C(F)(F)F)C2=O)n1 [AG-1, 2-(6-(Ethylamino)-4-(2-(4-methyl-4H-1,2,4-triazol-3-yl)phenyl)pyridin-2-yl)-6-((3-fluoroazetidin-1-yl)methyl)-4-(trifluoromethyl)isoindolin-1-one] | ≤ 200 |
| CCNc1cc(-c2ccccc2-c2nncn2C)cc(N2Cc3c(cc(CN4CCC5(CC4)CC5)cc3C(F)(F)F)C2=O)n1 [AI-2, 6-((6-Azaspiro[2.5]octan-6-yl)methyl)-2-(6-(ethylamino)-4-(2-(4-methyl-4H-1,2,4-triazol-3-yl)phenyl)pyridin-2-yl)-4-(trifluoromethyl)isoindolin-1-one] | ≤ 200 |
| CCNc1cc(-c2ccccc2-c2nncn2C)cc(N2Cc3c(cc(CN4CC[C@H](F)C4)cc3C(F)(F)F)C2=O)n1 [AJ-1, (S)-2-(6-(Ethylamino)-4-(2-(4-methyl-4H-1,2,4-triazol-3-yl)phenyl)pyridin-2-yl)-6-((3-fluoropyrrolidin-1-yl)methyl)-4-(trifluoromethyl)isoindolin-1-one] | ≤ 200 |
| CCNc1cc(-c2ccccc2-c2nncn2C)cc(N2Cc3c(cc(CN4CCC(F)(F)C(C)C4)cc3C(F)(F)F)C2=O)n1 (stereo not shown) [AK-2, 6-((4,4-Difluoro-3-methylpiperidin-1-yl)methyl)-2-(6-(ethylamino)-4-(2-(4-methyl-4H-1,2,4-triazol-3-yl)phenyl)pyridin-2-yl)-4-(trifluoromethyl)isoindolin-1-one] | ≤ 200 |
| CCNc1cc(-c2ccccc2-c2nncn2C)cc(N2Cc3c(cc(CN4CCO[C@@H](C)C4)cc3C(F)(F)F)C2=O)n1 [AL-1, (S)-2-(6-(Ethylamino)-4-(2-(4-methyl-4H-1,2,4-triazol-3-yl)phenyl)pyridin-2-yl)-6-((2-methylmorpholino)methyl)-4-(trifluoromethyl)isoindolin-1-one] | ≤ 200 |
| CCNc1cc(-c2ccccc2-c2nncn2C)cc(N2Cc3c(cc(CN4CCOCC4)cc3C(F)(F)F)C2=O)n1 [AM-2, 2-(6-(Ethylamino)-4-(2-(4-methyl-4H-1,2,4-triazol-3-yl)phenyl)pyridin-2-yl)-6-(morpholinomethyl)-4-(trifluoromethyl)isoindolin-1-one] | ≤ 200 |
| CCNc1cc(-c2ccccc2-c2nncn2C)cc(N2Cc3c(cc(CN4CCO[C@H](C)C4)cc3C(F)(F)F)C2=O)n1 [AN-1, (R)-2-(6-(Ethylamino)-4-(2-(4-methyl-4H-1,2,4-triazol-3-yl)phenyl)pyridin-2-yl)-6-((2-methylmorpholino)methyl)-4-(trifluoromethyl)isoindolin-1-one] | ≤ 200 |
| CCNc1cc(-c2ccccc2-c2nncn2C)cc(N2Cc3c(cc(CN[C@@H]4CCC[C@H]4O)cc3C(F)(F)F)C2=O)n1 [AO-1, 2-(6-(Ethylamino)-4-(2-(4-methyl-4H-1,2,4-triazol-3-yl)phenyl)pyridin-2-yl)-6-((((1R,2R)-2-hydroxycyclopentyl)amino)methyl)-4-(trifluoromethyl)isoindolin-1-one] | ≤ 200 |
| CCNc1cc(-c2ccccc2-c2nncn2C)cc(N2Cc3c(cc(CN[C@H]4CCC[C@@H]4O)cc3C(F)(F)F)C2=O)n1 [AP-1, 2-(6-(Ethylamino)-4-(2-(4-methyl-4H-1,2,4-triazol-3-yl)phenyl)pyridin-2-yl)-6-((((1S,2S)-2-hydroxycyclopentyl)amino)methyl)-4-(trifluoromethyl)isoindolin-1-one] | ≤ 200 |
| CCNc1cc(-c2ccccc2-c2nncn2C)cc(N2Cc3c(cc(CN[C@@H]4CCC[C@@H]4O)cc3C(F)(F)F)C2=O)n1 [AQ-1, 2-(6-(Ethylamino)-4-(2-(4-methyl-4H-1,2,4-triazol-3-yl)phenyl)pyridin-2-yl)-6-((((1R,2S)-2-hydroxycyclopentyl)amino)methyl)-4-(trifluoromethyl)isoindolin-1-one] | ≤ 200 |
| CCNc1cc(-c2ccccc2-c2nncn2C)cc(N2Cc3c(cc(CN[C@H]4CCC[C@H]4O)cc3C(F)(F)F)C2=O)n1 [AR-1, 2-(6-(Ethylamino)-4-(2-(4-methyl-4H-1,2,4-triazol-3-yl)phenyl)pyridin-2-yl)-6-((((1S,2R)-2-hydroxycyclopentyl)amino)methyl)-4-(trifluoromethyl)isoindolin-1-one] | ≤ 200 |
| CCNc1cc(-c2ccccc2-c2nncn2C)cc(N2Cc3c(cc(COC)cc3C(F)(F)F)C2=O)n1 [AS-2, 2-(6-(Ethylamino)-4-(2-(4-methyl-4H-1,2,4-triazol-3-yl)phenyl)pyridin-2-yl)-6-(methoxymethyl)-4-(trifluoromethyl)isoindolin-1-one] | ≤ 200 |
| COc1ccc([C@@H](C)Cc2nncn2C)cc1N1Cc2c(cc(CN3CCCC3)cc2C(F)(F)F)C1=O [Example F-9, (S)-2-(2-Methoxy-5-(1-(4-methyl-4H-1,2,4-triazol-3-yl)propan-2-yl)phenyl)-6-(pyrrolidin-1-ylmethyl)-4-(trifluoromethyl)isoindolin-1-one] | 1000 to 10000 |
| COc1ccc(-c2ccccc2-c2nncn2C)cc1N1Cc2c(cccc2C(F)(F)F)C1=O [Example G-4, 2-(4-Methoxy-2′-(4-methyl-4H-1,2,4-triazol-3-yl)-[1,1′-biphenyl]-3-yl)-4-(trifluoromethyl)isoindolin-1-one] | 10000 to 50000 |
| COC(=O)c1cc(-c2ccccc2-c2nncn2C)cc(N2Cc3c(cccc3C(F)(F)F)C2=O)c1 [Example H-5, Methyl 2′-(4-methyl-4H-1,2,4-triazol-3-yl)-5-(1-oxo-4-(trifluoromethyl)isoindolin-2-yl)-[1,1′-biphenyl]-3-carboxylate] | 10000 to 50000 |
| Cn1cnnc1-c1ccccc1-c1cc(C(=O)O)cc(N2Cc3c(cccc3C(F)(F)F)C2=O)c1 [Example I-1, 2′-(4-Methyl-4H-1,2,4-triazol-3-yl)-5-(1-oxo-4-(trifluoromethyl)isoindolin-2-yl)-[1,1′-biphenyl]-3-carboxylic acid] | 10000 to 50000 |
| Cn1cnnc1-c1ccccc1-c1cc(N2Cc3c(cccc3C(F)(F)F)C2=O)nc(C(F)(F)F)c1 [Example J-4, 2-(4-(2-(4-Methyl-4H-1,2,4-triazol-3-yl)phenyl)-6-(trifluoromethyl)pyridin-2-yl)-4-(trifluoromethyl)isoindolin-1-one] | 10000 to 50000 |
| Cn1cnnc1-c1ccccc1-c1cc(N2Cc3c(cccc3C(F)(F)F)C2=O)cc(C(F)(F)F)c1 [Example K-3, 2-(2′-(4-Methyl-4H-1,2,4-triazol-3-yl)-5-(trifluoromethyl)-[1,1′-biphenyl]-3-yl)-4-(trifluoromethyl)isoindolin-1-one] | 1000 to 10000 |
| Cn1cnnc1-c1ccccc1-c1cc(N2Cc3c(cccc3C(F)(F)F)C2=O)nc2[nH]ccc12 [Example L-5, 2-(4-(2-(4-Methyl-4H-1,2,4-triazol-3-yl)phenyl)-1H-pyrrolo[2,3-b]pyridin-6-yl)-4-(trifluoromethyl)isoindolin-1-one] | 10000 to 50000 |
| CCn1ccc2c(-c3ccccc3-c3nncn3C)cc(N3Cc4c(cccc4C(F)(F)F)C3=O)nc21 [Example M-2, 2-(1-Ethyl-4-(2-(4-methyl-4H-1,2,4-triazol-3-yl)phenyl)-1H-pyrrolo[2,3-b]pyridin-6-yl)-4-(trifluoromethyl)isoindolin-1-one] | 1000 to 10000 |
| Cn1cnnc1-c1ccccc1-c1cc(CO)cc(N2Cc3c(cccc3C(F)(F)F)C2=O)c1 [Example N-5, 2-(5-(Hydroxymethyl)-2′-(4-methyl-4H-1,2,4-triazol-3-yl)-[1,1′-biphenyl]-3-yl)-4-(trifluoromethyl)isoindolin-1-one] | 1000 to 10000 |
| CNC(=O)c1cc(-c2ccccc2-c2nncn2C)cc(N2Cc3c(cccc3C(F)(F)F)C2=O)c1 [Example O-3, N-Methyl-2′-(4-methyl-4H-1,2,4-triazol-3-yl)-5-(1-oxo-4-(trifluoromethyl)isoindolin-2-yl)-[1,1′-biphenyl]-3-carboxamide] | 10000 to 50000 |
| Cn1cnnc1-c1ccccc1-c1cccc(N2Cc3c(cc(CO)cc3C(F)(F)F)C2=O)c1 [Example P-2, 6-(Hydroxymethyl)-2-(2′-(4-methyl-4H-1,2,4-triazol-3-yl)-[1,1′-biphenyl]-3-yl)-4-(trifluoromethyl)isoindolin-1-one] | 200 to 1000 |
| C[C@H]1CCCN(Cc2cc3c(c(C(F)(F)F)c2)CN(c2cccc(-c4ccccc4-c4nncn4C)c2)C3=O)C1 [Example R-2, (S)-2-(2′-(4-Methyl-4H-1,2,4-triazol-3-yl)-[1,1′-biphenyl]-3-yl)-6-((3-methylpiperidin-1-yl)methyl)-4-(trifluoromethyl)isoindolin-1-one] | ≤ 200 |
| C[C@@H]1CCCN(Cc2cc3c(c(C(F)(F)F)c2)CN(c2cccc(-c4ccccc4-c4nncn4C)c2)C3=O)C1 [Example S-2, (R)-2-(2′-(4-Methyl-4H-1,2,4-triazol-3-yl)-[1,1′-biphenyl]-3-yl)-6-((3-methylpiperidin-1-yl)methyl)-4-(trifluoromethyl)isoindolin-1-one] | 200 to 1000 |
| Cn1cnnc1-c1ccccc1-c1cccc(N2Cc3c(cc(CN[C@H]4CCC[C@@H]4O)cc3C(F)(F)F)C2=O)c1 [Example T-2, 6-((((1S,2S)-2-Hydroxycyclopentyl)amino)methyl)-2-(2′-(4-methyl-4H-1,2,4-triazol-3-yl)-[1,1′-biphenyl]-3-yl)-4-(trifluoromethyl)isoindolin-1-one] | ≤ 200 |
| Cn1cnnc1-c1ccccc1-c1cccc(N2Cc3c(cc(CN4CC[C@H](F)C4)cc3C(F)(F)F)C2=O)c1 [Example V-2, (S)-6-((3-Fluoropyrrolidin-1-yl)methyl)-2-(2′-(4-methyl-4H-1,2,4-triazol-3-yl)-[1,1′-biphenyl]-3-yl)-4-(trifluoromethyl)isoindolin-1-one] | ≤ 200 |
| Cn1cnnc1-c1ccccc1-c1cccc(N2Cc3c(cc(CN[C@@H]4CCC[C@H]4O)cc3C(F)(F)F)C2=O)c1 [Example W-2, 6-((((1R,2R)-2-Hydroxycyclopentyl)amino)methyl)-2-(2′-(4-methyl-4H-1,2,4-triazol-3-yl)-[1,1′-biphenyl]-3-yl)-4-(trifluoromethyl)isoindolin-1-one] | ≤ 200 |
